Results on seven compounds are retold here after patent US20210213010A1, “TLR7/8 AGONISTS AND LIPOSOME COMPOSITIONS” (Torque Therapeutics, Inc., priority 2018, published 2021).

SMILES strings stand for the structures. Values joined by “and” are separate entries in the source; they are usually repeats but may differ in a detail not shown here. Equal values may be shown once.

The target of one data set is T1, mTLR7 (Mus musculus, UniProt P58681).
T1 construct: host or cells: HEK-Blue (HEK293-derived) reporter cells
T1 sequence (P58681 27-1050): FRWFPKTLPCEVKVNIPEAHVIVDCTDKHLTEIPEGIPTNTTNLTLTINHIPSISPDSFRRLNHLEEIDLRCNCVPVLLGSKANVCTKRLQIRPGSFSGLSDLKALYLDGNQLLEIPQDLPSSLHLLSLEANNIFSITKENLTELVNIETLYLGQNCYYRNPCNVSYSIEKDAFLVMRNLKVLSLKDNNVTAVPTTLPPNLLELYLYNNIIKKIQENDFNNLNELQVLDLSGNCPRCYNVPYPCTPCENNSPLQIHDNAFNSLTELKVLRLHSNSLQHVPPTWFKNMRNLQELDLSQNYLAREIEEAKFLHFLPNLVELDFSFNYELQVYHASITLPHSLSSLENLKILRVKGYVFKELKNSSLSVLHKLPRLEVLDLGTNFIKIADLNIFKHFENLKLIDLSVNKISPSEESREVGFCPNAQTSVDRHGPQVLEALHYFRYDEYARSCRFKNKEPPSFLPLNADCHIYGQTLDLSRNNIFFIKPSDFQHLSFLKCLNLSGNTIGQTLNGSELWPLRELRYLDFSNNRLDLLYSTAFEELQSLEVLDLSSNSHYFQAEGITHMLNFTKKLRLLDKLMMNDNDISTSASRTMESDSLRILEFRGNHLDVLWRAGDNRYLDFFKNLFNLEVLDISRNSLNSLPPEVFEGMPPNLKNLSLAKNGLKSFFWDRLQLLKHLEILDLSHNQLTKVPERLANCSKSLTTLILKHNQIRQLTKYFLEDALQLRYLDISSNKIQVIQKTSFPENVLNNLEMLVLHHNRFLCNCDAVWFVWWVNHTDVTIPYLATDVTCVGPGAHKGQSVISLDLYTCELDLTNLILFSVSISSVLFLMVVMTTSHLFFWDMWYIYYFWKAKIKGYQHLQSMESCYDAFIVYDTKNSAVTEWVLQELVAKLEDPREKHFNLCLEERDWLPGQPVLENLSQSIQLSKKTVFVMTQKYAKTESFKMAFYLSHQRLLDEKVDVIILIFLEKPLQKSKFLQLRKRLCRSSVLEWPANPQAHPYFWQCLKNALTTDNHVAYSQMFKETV
The experiment in a line: NF-κB induction in HEK-Blue mTLR7 reporter cells. The data set is classed as cell-based. The conditions noted are these: free compounds, 16 h. The text has this:
This example describes the general procedure used to assess the compounds' potency to induce NF-κB expression in human embryonic kidney (HEK) cells. The transcription factor NF-κB is expressed upon stimulation of TLR7/8 and is commonly used for quantifying TLR7/8 agonist potencies in reporter cell assays. Conversely, we used HEK-Blue mTLR-7 cells to evaluate the potencies of the synthesized derivatives, as previously reported (Shukla et al, J. Med. Chem. (2010), 53, 4450-4465).
HEK-Blue TLR7 assays were carried out using HEK-Blue™ mTLR7 cells (Invivogen, Toulouse, France, Cat. #hkb-mtlr7). The assays were carried out according to the protocol from Invivogen. TLR expressing cells were cultured in DMEM high glucose (4.5 g/L) supplemented with 10% (v/v) fetal bovine serum (FBS) and 1% (v/v) penicillin-streptomycin (P/S) to 50 U/ml penicillin and […] streptomycin. On the day of the study, the cells were seeded in a 96-well plate (ThermoFisher Scientific, Roskilde, Denmark) with 20 μL imidazoquinoline TLR7/8 agonist solutions per well at varying concentrations by adding 180 μL cell suspension, made by suspending cells to 0.22×10^6 cells per mL in HEK-Blue™ Detection medium (Invivogen, Cat. #hb-det2) added Blasticidin (10 μg/ml) and Zeocin™ (100 μg/ml), leading to a final concentration of 40×10^3 cells per well in triplicates. Cells were incubated with the imidazoquinoline TLR7/8 agonists, formulated in liposomes or dissolved in PBS, at 37° C. with 5% CO2 for 16 h. The response was quantified spectrophotometrically at 655 nm and was normalized to the signal from a blank sample (DMSO dilution) run in parallel.

For another data set, the system named is RAW-Blue cells. The experiment in a line: NF-κB induction in RAW-Blue reporter cells (RAW 264.7 macrophages, SEAP). The data set is classed as cell-based. The conditions noted are these: for EC50: RAW-Blue, sigmoidal 4PL fitting, 24 h; for Potency in the RAW-Blue cell assay: compared with R848. The text has this: This example describes the general procedure used to assess the compounds' potency to induce NF-κB expression in RAW 264.7 macrophages cells that stably express secreted embryonic alkaline phosphatase (SEAP) upon induction of NF-κB. RAW-Blue™ reporter cells are commonly used for quantifying TLR7/8 agonist potencies in reporter cell assays. Conversely, we used RAW-Blue™ cells to evaluate the potencies of the synthesized derivatives, as previously reported^1. ^1 Ryu et al, J. Am. Chem. Soc. (2014), 136, 10823-10825
RAW 264.7 assays were carried out using RAW-Blue™ cells and QUANTI-Blue™ detection solution (Invivogen, Toulouse, France, at. #raw-sp and rep-qbs respectively). The assays carried out according to the protocol from Invivogen. RAW 264.7 macrophages were cultured in DMEM high glucose (4.5 g/L) supplemented with 10% (v/v) FBS, 1% (v/v) P/S, and Normocin™ (100 μg/ml). On the day of the study, the cells were seeded in a 96-well plate (ThermoFisher Scientific, Roskilde, Denmark) with 20 μL TLR7/8 agonist solutions per well at varying concentrations by adding 180 μL cell suspension, made by suspending cells to 0.55×10^6 cells per mL in the prepared cell medium added Zeocin™ (200 μg/ml), leading to a final concentration of 100×10^3 cells per well in triplicates. Cells were incubated with the TLR7/8 agonists, diluted from 10 mM DMSO stocks in PBS, at 37° C. with 5% CO2 for 24 h for SEAP production. 50 μL SEAP containing cell supernatant from each well was added 150 μL QUANTI-Blue™ detection solution and was incubated at 37° C. for 3-6 h. The resulting response was quantified spectrophotometrically at 640 nm and was normalized to the signal from a blank sample (DMSO dilution) run in parallel.
Half maximal effective concentration (EC50) values were determined from sigmoidal 4PL fittings from the resulting dose-response curves in GraphPad Prism.

A short description of data set [1]: Remote loading efficiency of small molecules into liposomes (PD-10 size exclusion, HPLC). The format is physicochemical. The conditions noted are these: mean (SD), n = 2. The protocol: A solution of the small molecule (modified TLR agonist) was lyophilized in a vial equipped with a magnetic stir bar over night to form a fluffy white powder. This powder was added either formulation F1 or F2 to the wanted drug/lipid ratio. The resulting mixture was stirred at 55° C. or 41° C. for formulation F1 and F2 respectively for 3h, then allowed to cool to rt before the solutions were refrigerated and stored at 4° C.
Remote loading efficiency was determined at 1 h and 3 h by taking out 100 μL of the mixture and applying this and 900 μL buffer (25 mM HEPES, 10 vol % sucrose buffer, pH 7.4) to a PD-10 column size exclusion column. Following, 10×1 mL fractions were collected, and the small molecule compound concentrations in the loading mixture and in the liposome containing fractions were determined on analytical HPLC. Loading efficiency was calculated as percentage of molecules found in liposome containing fractions out of the applied amount. The general procedure for the small molecule remote loading is visualized in FIG. 3. The general concept of remote loading imidazoquinolines in liposomes that are dialyzed against HEPES is visualized in FIG. 4.

Where [2] appears, read: formulation F3, drug/lipid ratio 0.10, 1 h.
The mark [3] stands for this setting: formulation F3, drug/lipid ratio 0.10, 3 h.

In the case of `CCCCc1nc2c(N)nc3ccccc3c2n1Cc1ccc(CNC(=O)[C@@H](N)[C@@H](C)CC)cc1` [MK146, (2S,3S)-2-amino-N-(4-((4-amino-2-butyl-1H-imidazo[4,5-c]quinolin-1-yl)methyl)benzyl)-3-methylpentanamide], the “TLR7 agonist activity (NF-κB induction)” value on mTLR7 was “potencies that were higher or comparable to that of R848”. In addition, in the data set with RAW-Blue cells, the response was half-maximal at 40 nM (EC50) and the “Potency in the RAW-Blue cell assay” value is recorded as “greater potencies than R848”. The “Remote loading efficiency 1 h (%)” value in data set [1] (setting [2]) is 94.1 (2.9) %. In addition, in data set [1] (setting [3]), the “Remote loading efficiency 3 h (%)” value is 88.4 (1.5) %.
In the case of `CCCCc1nc2c(N)nc3ccccc3c2n1Cc1ccc(CNC(=O)[C@@H](N)CC(N)=O)cc1` [MK135, (S)-2-amino-N-(4-((4-amino-2-butyl-1H-imidazo [4,5-c]quinolin-1-yl)methyl)benzyl)succinamide], the “TLR7 agonist activity (NF-κB induction)” value on mTLR7 is recorded as “the lowest potency of all derivatives”. For the same compound, it took 420 nM to reach a half-maximal effect in the data set on RAW-Blue cells (EC50). Further, the “Remote loading efficiency 1 h (%)” value is on record as 85.9 (4.7) % in data set [1] (setting [2]); 55.5 (5.7) % in data set [1] (formulation F3, drug/lipid ratio 0.25, 1 h); 19.5 (0.1) % in data set [1] (formulation F3, drug/lipid ratio 0.50, 1 h). The “Remote loading efficiency 3 h (%)” value is 86.4 (5.1) % in data set [1] (setting [3]); 65.0 (7.7) % in data set [1] (formulation F3, drug/lipid ratio 0.25, 3 h); 23% and 23.3 (0.3) % in data set [1] (formulation F3, drug/lipid ratio 0.50, 3 h).
Consider `CCCCc1nc2c(N)nc3ccccc3c2n1Cc1ccc(CNC(=O)[C@H](C)N)cc1` [MK137, (S)-2-amino-N-(4-((4-amino-2-butyl-1H-imidazo[4,5-c]quinolin-1-yl)methyl)benzyl)propanamide], for which the “TLR7 agonist activity (NF-κB induction)” value on mTLR7 is reported as “potencies that were higher or comparable to that of R848”. In the data set on RAW-Blue cells, the EC50 stood at 40 nM and the “Potency in the RAW-Blue cell assay” value is given as “greater potencies than R848”. Also, the “Remote loading efficiency 1 h (%)” value in data set [1] (setting [2]) was 98.1 (5.2) %. The “Remote loading efficiency 3 h (%)” value in data set [1] (setting [3]) is 99.1 (1.8) %.
The corresponding values for `CCCCc1nc2c(N)nc3ccccc3c2n1Cc1ccc(CNC(=O)[C@@H]2CCCN2)cc1` [MK140, (S)—N-(4-((4-amino-2-butyl-1H-imidazo[4,5-c]quinolin-1-yl)methyl)benzyl)pyrrolidine-2-carboxamide] are “potencies that were higher or comparable to that of R848”, 50 nM, “greater potencies than R848”, 93.6 (0.1) % and 98.3 (3.4) %.
As for `CCCCc1nc2c(N)nc3ccccc3c2n1Cc1ccc(CNC(=O)[C@@H](N)CCC(N)=O)cc1` [MK136, (S)-2-amino-N-(4-((4-amino-2-butyl-1H-imidazo[4,5-c]quinolin-1-yl)methyl)benzyl)pentanediamide], the “TLR7 agonist activity (NF-κB induction)” value at mTLR7 is recorded as “the lowest potency of all derivatives”. The response with RAW-Blue cells was half-maximal at 740 nM (EC50). Moreover, in data set [1] (setting [2]), the “Remote loading efficiency 1 h (%)” value is listed as 2.0 (0.2) %. Also, the “Remote loading efficiency 3 h (%)” value in data set [1] (setting [3]) was 3.1 (0.4) %.
With `CCCCc1nc2c(N)nc3ccccc3c2n1Cc1ccc(CNC(=O)CN)cc1` [MK139, 2-amino-N-(4-((4-amino-2-butyl-1H-imidazo[4,5-c]quinolin-1-yl)methyl)benzyl)acetamide], at mTLR7, the “TLR7 agonist activity (NF-κB induction)” value is listed as “potencies that were higher or comparable to that of R848”. Further, it took 340 nM to reach a half-maximal effect in the data set on RAW-Blue cells (EC50). Besides, the “Remote loading efficiency 1 h (%)” value in data set [1] (setting [2]) is 84.7 (17.4) %. Moreover, in data set [1] (setting [3]), the “Remote loading efficiency 3 h (%)” value is on record as 90.6 (1.6) %.
`CCCCc1nc2c(N)nc3ccccc3c2n1Cc1ccc(CNC(=O)[C@@H](N)C(C)C)cc1` [MK145, (S)-2-amino-N-(4-((4-amino-2-butyl-1H-imidazo[4,5-c]quinolin-1-yl)methyl)benzyl)-3-methylbutanamide]: at mTLR7, the “TLR7 agonist activity (NF-κB induction)” value was “potencies that were higher or comparable to that of R848”. In the data set with RAW-Blue cells, the 50% effective concentration (EC50) came to 30 nM and the “Potency in the RAW-Blue cell assay” value is “the most potent compounds”. The “Remote loading efficiency 1 h (%)” value in data set [1] (setting [2]) is listed as 97.2 (4.0) %. Further, the “Remote loading efficiency 3 h (%)” value in data set [1] (setting [3]) was 92.4 (3.9) %.

What is called EC50 is the concentration giving half of the maximal effect. Read a high EC50 as lower potency in that assay.
